Here are results for two compounds from US20240082221A1, “COMPOSITIONS AND METHODS FOR THE IDENTIFICATION OF COMPOUNDS THAT PROTECT AGAINST LIPOFUSCIN CYTOTOXICITY” (priority 2021, published 2024).

Molecules are shown by their SMILES. Where two headings read alike, the source gives them in different places.

Series [1] has as its system activated microglia/macrophages. Nature of the series: Intravitreal treatment of DKO mice, subretinal microglia/macrophage infiltration. The format is in vivo, ABCA4−/− RDH8−/− double knock-out mice (DKO). Here is the method:
(§1) Animals. Pigmented ABCA4^−/− RDH8^−/− double knock-out mice (DKO), free of rd8 mutation, were purchased from Jackson laboratories and every 10 generations were in house backcrossed to the C57BL6J control strain, to prevent genetic drifts. Genotyping was performed at Transnetyx (Memphis, TN). Only mice with ABCA4, RDH8, RPE65-Leu450 but no crb1 mutations (retinal degeneration slow) were maintained in the colony. Controls C57BL/6J (Rpe65-Leu450, crb1negative) were also Jackson's lab. All mice were housed at Weill Cornell Medicine's animal facility under a 12 h light (˜10 lux)/12 h dark cycle environment or under complete darkness. Experimental manipulations in the dark were done under dim red light transmitted through a Kodak No. 1 safelight filter (transmittance >560 nm). No retinal degeneration or necroptosis markers were appreciably detected in 20 months or older C57BL6/N (Rpe65-Met450, crb1 positive) obtained from the NAI/NIH. All animal procedures and experiments were approved by the Animal Care and Use Committee of Weill Cornell Medical College in agreement with the guidelines established by the NIH Office of Laboratory Animal Welfare and the Association of Research for Vision and Ophthalmology (ARVO) statement for the use of animals in ophthalmic research. […]
(§2) Pharmacological treatment of mice. […] The exact volume of Mock reagent or Kira6 was determined by 10 μl Hamilton syringe. […]

The test system of series [2] is XBP1s. Nature of the series: Intravitreal treatment of DKO mice, XBP1s immunostaining of RPE flat mounts. The note with it: 26 month old DKO mice, intraocular, a week later, vs mock treated eyes. The class given is in vivo, ABCA4−/− RDH8−/− double knock-out mice (DKO). As to the method: as §1, §2
The test system of a further series is ARPE-19 cells. As to the method:
Cell Viability Assay. […] 1× AlamarBlue solution prepared in OptiMEM was used to replace the media supernatant and the plate's fluorescence was determined at 555 nm excitation/585 nm emission with a SpectraMax M (Molecular Devices, CA, USA), after 1 h. […] The exact timing of appearance of far-red (DRAQ7=plasma membrane leakage) and blue (NUC405=caspase 3 activation) fluorescence signals was critical to differentiate apoptosis and necrosis from secondary events, such as membrane damage and generalized proteolytic activation during the late phase of apoptosis and necrosis, respectively.
Real time monitoring of necrotic and apoptotic cell-death. Cell-death assay to study Lipofuscin's dark toxicity was performed. 90% confluent ARPE-19 or hfRPE were incubated overnight in serum free media supplemented with indicated LB concentration. Viability was assessed at 24 hrs by AlamarBlue®, or microscopy with NUC405/DRAQ7. Real time monitoring of necrotic (red) and apoptotic (blue) cell-death was performed by automated fluorescence microscopy. The exact timing of appearance of far-red (DRAQ7=plasma membrane leakage) and blue (NUC405=caspase 3 activation) fluorescence signals was critical to differentiate apoptosis and necrosis from secondary events, such as membrane damage and generalized proteolytic activation during the late phase of apoptosis and necrosis, respectively.
Chemical inhibitors. Chemical inhibitors used in this study are described in FIG. 12.

Series [3] deals with EDN2, FGF2, GFAP, SERP, VEGF, CXCL15, XBP1s, SCAND1, CEBPA, HMGA. The series can be described thus: Intravitreal treatment of DKO mice, qPCR of retinal degeneration markers in whole retina. The note with it: total RNA from whole retina, vs control injected eyes. The format is in vivo, ABCA4−/− RDH8−/− double knock-out mice (DKO). Here is the method: Pharmacological treatment of mice. KIRA6 (Cayman Chemical, item no. 19151) was injected intravitreously with 1 μL total volume. KIRA6 concentration is 20 μg/ml. The control eye received an equal amount of mock reagent (DMSO). Mouse was weighed and anesthetized with Ketamine cocktail at 10 mg/kg, then mouse eyes were dilated with Tropicamide. The exact volume of Mock reagent or Kira6 was determined by 10 μl Hamilton syringe. Under surgery microscope, mouse eye was placed in the center of the field, 34 gauge of needle was inserted into mouse eye at the Ora serrata and towards ONH. Once the needle was inside the mouse eye, 2 μl of the contents in the Hamilton syringe was injected. The needle was slowly withdrawn to prevent the reflux of the solution. Nec7 (2 μL of 33 mM stock in DMSO) was intravitreally injected in the left eye and an equal amount of vehicle (DMSO) was administered to the right eye. After intravitreal injection, the mouse was placed in a warm place until it completely woke up. […]
RNA isolation and quantitative PCR. […] The total RNA then was reversed transcribed using High-Capacity cDNA Reverse Transcription Kit (ThermoFisher Scientific, cat.no. 4368814) and analyzed gene expression using SYBR Green Master Mix (ThermoFisher Scientific, cat.no. 4472908) in an Applied Biosystems StepOne real time PCR machine. […]
(Quantitative PCR measures a nucleic acid by following its amplification.)

The test system of a further series is ARPE19 cells. Nature of the series: ATR-induced light-independent cell death. The format is cell-based, Human. The settings on record: pre-treatment with 33 μM. From the text:
Overall, these indicate that necroptosis is a specific readout of ocular lipofuscin toxicity, easily distinguishable from the poisonous effects of ATR.

Series [4] has as its system XBP1s. The series can be described thus: qPCR of XBP1 splicing in hfRPE. The class given is cell-based, Human. An excerpt:
RNA isolation and quantitative PCR. Total RNA was extracted from cultured cells or mouse eye RPE layer using the RNeasy Mini kit (QIAGEN). The total RNA was digested with deoxyribonuclease I to prevent amplification of genomic DNA. The total RNA then was reversed transcribed using High-Capacity cDNA Reverse Transcription Kit (ThermoFisher Scientific, cat.no. 4368814) and analyzed gene expression using SYBR Green Master Mix (ThermoFisher Scientific, cat.no. 4472908) in an Applied Biosystems StepOne real time PCR machine. GAPDH was used as a reference gene. […] After genes were amplified by real time PCR, some of the PCR products were separated by 2.5% agarose gel.

With `CC(C)(C)c1nc(-c2ccc(NC(=O)Nc3cccc(C(F)(F)F)c3)c3ccccc23)c2c(N)nccn12` [KIRA6], the “Iba-1+ cells attached to the apical side of RPE” value in series [1] (RPE-flat mounts, center to periphery) is recorded as “No Iba-1+ cells were detected”. Moreover, the “XBP1s staining of whole RPE flat mounts” value in the series on XBP1s [2] was “decreased from the center to the periphery”. The “protection against light-independent LF (A2E/ATRD) cytotoxicity, RPE survival” value in the series on ARPE-19 cells is “sufficient to protect against necroptosis by LF”. In addition, the “mRNA levels of markers for retinal degeneration, inflammation/angiogenesis, ER-stress and necroptosis” value in series [3] is listed as “generalized reduction in all the tested markers”.

As for `N=C1S/C(=C\c2cn[nH]c2-c2ccc(F)cc2)C(=O)N1c1nccs1` [Nec7, Necrostatin 7], the “infiltration of CD11b cells in the subretinal space” value in series [1] (RPE-flat mounts from 25- to 27-month-old DKO mice) is reported as “reduced the infiltration of CD11b cells”. The “protection against light-independent LF (A2E/ATRD) cytotoxicity, RPE survival” value in the series on ARPE-19 cells (ARPE-19, inhibitor pretreatment, A2E/ATRD 24 h, no light, AlamarBlue) is recorded as “highly protective”; in the series on ARPE-19 cells (ARPE-19, inhibitor pretreatment, A2E/ATRD 24 h, no light, AlamarBlue, listed as Nec-7), “protects against necroptosis by lipofuscin”. Also, the “effect on cell death by ATR” value in the series with ARPE19 cells is “did not block cell death”. The “effect on LF-induced XBP1 splicing in hfRPE” value in the series with XBP1s [4] is “prevention”.
